The results in this text go back to patent US6706740B2, “Fungicidal heterocyclic aromatic amides and their compositions, methods of use and preparation” (Dow AgroSciences LLC, priority 1999, dated 2004).

Like-named read-outs stand apart in the source and are kept apart here.

Experiment [1] concerns Puccinia recondita—PUCCRT. In words: Brown Rust of Wheat, in vivo whole plant, 24 Hour Protectant. The following applies: control of fungal infection vs untreated plants; for pest or weed control at 100 ppm: Puccinia, read-out: PUCCRT in vivo 1 Day Protectant.
Experiment [2] deals with Mycosphaerella graminicola (Septoria tritici—SEPTTR). In words: In vitro fungal growth inhibition, Mycosphaerella graminicola (SEPTTR). The format is cell-based. The following applies: for inhibition at 25 ppm: Zymoseptoria tritici, read-out: SEPTTR in vitro Growth Inhibition.
Experiment [3] deals with Magnaporthe grisea (Pyricularia oryzae—PYRIOR). In words: microbe, parasite or virus in culture. The format is cell-based. The following applies: for inhibition at 25 ppm: Pyricularia oryzae, read-out: PYRIOR in vitro Growth Inhibition.
Another experiment concerns Ustilago maydis (USTIMA). In words: microbe, parasite or virus in culture. The format is cell-based. The following applies: for inhibition at 25 ppm: Mycosarcoma maydis, read-out: USTIMA in vitro Growth Inhibition.
The subject of experiment [4] is Phytophthora infestans—PHYTIN. The experiment can be described thus: whole plant or invertebrate. It is filed as in vivo. The following applies: for pest or weed control at 100 ppm: Phytophthora, in Solanum lycopersicum, 24 h, read-out: PHYTIN in vivo 1 Day Protectant.
The next experiment has as its system Erysiphe graminis—ERYSGT. The experiment can be described thus: Powdery Mildew of Wheat, in vivo whole plant, 24 Hour Protectant. The following applies: control of fungal infection vs untreated plants; for pest or weed control at 100 ppm: Erysiphe, read-out: ERYSGT in vivo 1 Day Protectant.
The subject of experiment [5] is Leptosphaeria nodorum—LEPTNO. The experiment can be described thus: Glume Blotch of Wheat, in vivo whole plant, 24 Hour Protectant. The following applies: control of fungal infection vs untreated plants; for pest or weed control at 100 ppm: Leptosphaeria, read-out: LEPTNO in vivo 1 Day Protectant.
Experiment [6] concerns Stagonospora nodorum (Leptosphaeria nodorum—LEPTNO). In words: In vitro fungal growth inhibition, Stagonospora nodorum (LEPTNO). It is filed as cell-based. The following applies: for inhibition at 25 ppm: Leptosphaeria, read-out: LEPTNO in vitro Growth Inhibition.
Another experiment relates to Septoria tritici—SEPTTR. The experiment can be described thus: Leaf Blotch of Wheat, in vivo whole plant, 24 Hour Protectant. The following applies: control of fungal infection vs untreated plants; for pest or weed control at 100 ppm: Zymoseptoria tritici, 24 h, read-out: SEPTTR in vivo 1 Day Protectant.
Experiment [7] concerns Rhizoctonia solani (RHIZSO). In words: microbe, parasite or virus in culture. It is filed as cell-based. The following applies: for inhibition at 25 ppm: Rhizoctonia solani, read-out: RHIZSO in vitro Growth Inhibition.
In experiment [8] the test system is Phytophthora infestans (PHYTIN). In words: microbe, parasite or virus in culture. The following applies: for inhibition at 25 ppm: Phytophthora infestans, read-out: PHYTIN in vitro Growth Inhibition. The format is cell-based.
Setting [9] is: wheat plants sprayed at 100 ppm, inoculated after 24 hours.
The mark [10] stands for this setting: 100 ppm spray, 24 hour protectant, wheat.
Where [11] appears, read: 100 ppm spray, wheat, 24 hour protectant.

For the molecule `O=C(Nc1cccc(Oc2ccccc2C(F)(F)F)c1)c1nc(Br)ccc1O` [Compound 494], the pest or weed control at 100 ppm in [1] (setting [9]) is below 25%; in experiment [4] it was below 25%; with Erysiphe graminis—ERYSGT (setting [9]), below 25%; in [5] (setting [9]) it was below 25%; in the experiment on Septoria tritici—SEPTTR (setting [9]) it was 25 to 74%. The inhibition at 25 ppm (in experiment [2] (25 ppm in the growth medium); in experiment [3]; with Ustilago maydis (USTIMA); in experiment [6] (25 ppm in the growth medium); in experiment [7]; in experiment [8]) was below 80% in each case.

Regarding `COc1ccnc(C(=O)N[C@H]2CC3CC2[C@@H](COCc2cccc(C(F)(F)F)c2)C3)c1O` (stereo partly shown) [Compound 295], the pest or weed control at 100 ppm in experiment [1] (setting [10]) was 25 to 74%; in experiment [4], below 25%; in the experiment on Erysiphe graminis—ERYSGT (setting [10]) it was below 25%; in experiment [5] (setting [10]), 25 to 74%. Further, the inhibition – broadly, the drop in the measured response relative to a control, in per cent – at 25 ppm in experiment [2] (25 ppm in growth medium) was above 80%; in experiment [3], above 80%; in the experiment on Ustilago maydis (USTIMA), below 80%; in experiment [6] (25 ppm in growth medium) it was above 80%; in experiment [7], above 80%; in experiment [8], below 80%. In addition, the “SEPTTR in vivo 1 Day Protectant” value in the experiment with Septoria tritici—SEPTTR (setting [10]) is recorded as “+ +”.

Turning to `COc1ccnc(C(=O)N[C@@H]2CC(C)(C)C[C@](C)(C(=O)N(C)CCc3ccccc3)C2)c1O` [Compound 263], in experiment [1] (setting [10]), the “PUCCRT in vivo 1 Day Protectant” value is reported as “− (<25% control of fungal infection)”. Moreover, the “SEPTTR in vitro Growth Inhibition” value in experiment [2] (25 ppm in growth medium) is given as “− (less than 80% growth inhibition)”. Besides, in [3] (25 ppm in growth medium), the “PYRIOR in vitro Growth Inhibition” value is on record as “− (less than 80% growth inhibition)”. Further, the “USTIMA in vitro Growth Inhibition” value with Ustilago maydis (USTIMA) is on record as “− (key: +: at least 80% growth inhibition; −: less than 80% growth inhibition)”. The “PHYTIN in vivo 1 Day Protectant” value in experiment [4] (100 ppm spray, 24 hour protectant, tomato, control of fungal infection vs untreated plants) is “− (<25% control of fungal infection)”. Moreover, the “ERYSGT in vivo 1 Day Protectant” value with Erysiphe graminis—ERYSGT (setting [10]) is listed as “− (<25% control of fungal infection)”. Further, the “LEPTNO in vivo 1 Day Protectant” value in [5] (setting [10]) is “+ (25-74% control of fungal infection)”. Moreover, the “LEPTNO in vitro Growth Inhibition” value in experiment [6] (25 ppm in growth medium) is reported as “− (less than 80% growth inhibition)”. Besides, in the experiment with Septoria tritici—SEPTTR (setting [10]), the “SEPTTR in vivo 1 Day Protectant” value is “− (<25% control of fungal infection)”. Besides, the “RHIZSO in vitro Growth Inhibition” value in experiment [7] was “− (key: +: at least 80% growth inhibition; −: less than 80% growth inhibition)”. Besides, in [8] (25 ppm in growth medium), the “PHYTIN in vitro Growth Inhibition” value is “− (less than 80% growth inhibition)”.

As for `CCCCC1(C)CC(NC(=O)c2nccc(OC)c2O)CC(C)(C)C1` (stereo not shown) [Compound 253], the pest or weed control at 100 ppm in [1] (setting [10]) was 25 to 74%; in [4], below 25%; in the experiment on Erysiphe graminis—ERYSGT (setting [10]), below 25%; in experiment [5] (setting [10]), 25 to 74%; in the experiment on Septoria tritici—SEPTTR (setting [10]), 25 to 74%. Besides, the inhibition at 25 ppm is above 80% in [2] (25 ppm in growth medium); above 80% in experiment [3]; below 80% with Ustilago maydis (USTIMA); above 80% in experiment [6] (25 ppm in growth medium); below 80% in experiment [7]; above 80% in [8].

As to `COc1ccnc(C(=O)NC2CC(c3ccco3)CC(C)(C)C2)c1O` (stereo not shown) [Compound 258], the pest or weed control at 100 ppm in [1] (setting [10]) was below 25%; in [4], below 25%; in the experiment with Erysiphe graminis—ERYSGT (setting [10]), below 25%; in experiment [5] (setting [10]) it was 25 to 74%; with Septoria tritici—SEPTTR (setting [10]) it was 25 to 74%. Besides, the inhibition at 25 ppm in experiment [2] (25 ppm in growth medium) is above 80%; in experiment [3], below 80%; in the experiment with Ustilago maydis (USTIMA) it was below 80%; in experiment [6] (25 ppm in growth medium), above 80%; in experiment [7], below 80%; in [8] it was above 80%.

As for `COc1ccnc(C(=O)NC(COC(=O)C(Cc2ccccc2)C(C)OC(=O)c2ccccc2)C(=O)OC(C)C)c1O` (stereo not shown) [Compound 356], the pest or weed control at 100 ppm in [1] (setting [11]) was 25 to 74%; in experiment [4] it was below 25%; in the experiment on Erysiphe graminis—ERYSGT (setting [11]), below 25%; in experiment [5] (setting [11]), 25 to 74%; with Septoria tritici—SEPTTR (setting [11]), 25 to 74%. For the same molecule, the inhibition at 25 ppm (in experiment [2] (25 ppm in growth medium); in experiment [3]; with Ustilago maydis (USTIMA); in experiment [6] (25 ppm in growth medium); in experiment [7]; in experiment [8]) was below 80% in each case.

`COc1ccnc(C(=O)N[C@H]2C[C@@H](O[Si](C)(C)C(C)(C)C)O[C@@H](C)[C@@H]2OCc2ccccc2)c1O` [Compound 328]: the pest or weed control at 100 ppm in [1] (setting [11]) was below 25%; in [4], below 25%; in the experiment with Erysiphe graminis—ERYSGT (setting [11]), below 25%; in experiment [5] (setting [11]), 25 to 74%; in the experiment with Septoria tritici—SEPTTR (setting [11]) it was 25 to 74%. Also, the inhibition at 25 ppm is below 80% in experiment [2]; below 80% in [3]; below 80% with Ustilago maydis (USTIMA); below 80% in experiment [6]; below 80% in experiment [7]; above 80% in experiment [8].

Take `COc1ccnc(C(=O)NC2C(=O)c3ccc(-c4ccco4)cc3OC2C)c1O` (stereo not shown) [Compound 323]: the pest or weed control at 100 ppm in experiment [1] (setting [10]) is 25 to 74%; in experiment [4], below 25%; in the experiment with Erysiphe graminis—ERYSGT (setting [10]) it was below 25%. Further, the inhibition at 25 ppm in [2] (25 ppm in growth medium) was above 80%; in [3], above 80%; in the experiment with Ustilago maydis (USTIMA), below 80%; in experiment [6] (25 ppm in growth medium), above 80%; in experiment [7], above 80%; in experiment [8], below 80%. In experiment [5] (setting [10]), the “LEPTNO in vivo 1 Day Protectant” value is listed as “+ +”. In addition, in the experiment on Septoria tritici—SEPTTR (setting [10]), the “SEPTTR in vivo 1 Day Protectant” value is listed as “+ +”.

Regarding `COc1ccnc(C(=O)NC2CC(=O)OCC(C)COC2=O)c1O` (stereo not shown) [Compound 378], the pest or weed control at 100 ppm in [1] (setting [11]) is below 25%; in experiment [4], below 25%; in the experiment on Erysiphe graminis—ERYSGT (setting [11]), below 25%; in experiment [5] (setting [11]), 25 to 74%; in the experiment on Septoria tritici—SEPTTR (setting [11]), below 25%. Also, the inhibition at 25 ppm (in experiment [2] (25 ppm in growth medium); in [3]; in the experiment with Ustilago maydis (USTIMA); in experiment [6] (25 ppm in growth medium); in experiment [7]; in [8]) was below 80% in each case.

In the case of `COc1ccnc(C(=O)Nc2ccc(Oc3cccc(Cl)c3)cc2)c1O` [Compound 442], the pest or weed control at 100 ppm was 25 to 74% in [1] (setting [11]); 25 to 74% in experiment [4]; below 25% in the experiment on Erysiphe graminis—ERYSGT (setting [11]); below 25% in [5] (setting [11]); below 25% with Septoria tritici—SEPTTR (setting [11]). Further, the inhibition at 25 ppm in [2] (25 ppm in growth medium) was above 80%; in [3] it was above 80%; in the experiment with Ustilago maydis (USTIMA), below 80%; in experiment [6] (25 ppm in growth medium), above 80%; in experiment [7] it was below 80%; in [8], below 80%.

Regarding `COc1ccnc(C(=O)NC2CC(C)(C)C=CC(C)C2C)c1O` (stereo not shown) [Compound 279], the pest or weed control at 100 ppm is below 25% in experiment [1] (setting [10]); 25 to 74% in [4]; 25 to 74% in the experiment with Erysiphe graminis—ERYSGT (setting [10]); 25 to 74% in experiment [5] (setting [10]); 25 to 74% in the experiment on Septoria tritici—SEPTTR (setting [10]). Besides, the inhibition at 25 ppm in [2] (25 ppm in growth medium) was above 80%; in experiment [3], below 80%; with Ustilago maydis (USTIMA), below 80%; in experiment [6] (25 ppm in growth medium), above 80%; in [7] it was below 80%; in [8], above 80%.
